Laboratory results: patent US20240018135A1, “COMPOUND HAVING INHIBITORY ACTIVITY AGAINST O-GLUSACASE AND USE THEREOF” (MEDIFRON DBT INC., priority 2020, published 2024)

Columns and labels:
[1] = target: Human OGA (recombinant hOGA protein) (Homo sapiens (Human), UniProt O60502); test: Human OGA enzyme activity assay (fluorescence, 4-Methylumbelliferyl N-acetyl-β-D-glucosaminide substrate); assay type: biochemical; conditions: for IC50: Table 1; for % of inhibition: Table 1, test concentration not given
Human OGA (recombinant hOGA protein), sequence (O60502 whole entry): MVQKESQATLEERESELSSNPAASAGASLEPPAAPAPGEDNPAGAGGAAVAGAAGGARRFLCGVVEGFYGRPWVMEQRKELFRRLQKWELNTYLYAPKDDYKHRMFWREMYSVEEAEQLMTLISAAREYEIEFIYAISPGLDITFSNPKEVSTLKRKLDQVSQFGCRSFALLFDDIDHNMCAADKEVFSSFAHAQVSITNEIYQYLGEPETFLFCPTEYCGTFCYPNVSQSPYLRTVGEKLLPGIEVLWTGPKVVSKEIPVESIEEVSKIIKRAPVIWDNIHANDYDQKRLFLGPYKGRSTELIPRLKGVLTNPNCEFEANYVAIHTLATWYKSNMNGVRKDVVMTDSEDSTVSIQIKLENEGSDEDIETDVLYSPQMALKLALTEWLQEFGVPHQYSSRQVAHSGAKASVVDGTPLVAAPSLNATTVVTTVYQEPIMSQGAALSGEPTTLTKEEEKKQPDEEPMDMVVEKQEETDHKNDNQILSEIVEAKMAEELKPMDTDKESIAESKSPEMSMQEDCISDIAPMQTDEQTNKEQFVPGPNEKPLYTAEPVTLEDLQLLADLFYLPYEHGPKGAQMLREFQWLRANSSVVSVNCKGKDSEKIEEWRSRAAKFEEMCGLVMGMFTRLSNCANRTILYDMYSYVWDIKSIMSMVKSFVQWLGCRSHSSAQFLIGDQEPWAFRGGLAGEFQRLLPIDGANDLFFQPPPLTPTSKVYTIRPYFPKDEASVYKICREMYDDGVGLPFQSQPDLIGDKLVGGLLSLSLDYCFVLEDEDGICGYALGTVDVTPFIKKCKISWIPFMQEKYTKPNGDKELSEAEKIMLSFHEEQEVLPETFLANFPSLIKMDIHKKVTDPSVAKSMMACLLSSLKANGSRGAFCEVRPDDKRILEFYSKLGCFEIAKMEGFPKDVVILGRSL

Compound | IC50 [1] [nM] | % of inhibition [1] [%] | melting point [°C]
1-((2-acetamidothiazol-5-yl)methyl)-N-(4-fluorophenyl)piperidine-4-carboxamide [Compound B-14] | 300 | 89.0 | –
1-((2-acetamidothiazol-5-yl)methyl)-N-(p-tolyl)piperidine-4-carboxamide [Compound B-15] | 160 | 91.2 | –
CC(=O)Nc1ncc(CN2CCN(CC(=O)Nc3ccccc3)CC2)s1 [Compound A-1, 2-(4-((2-acetamidothiazol-5-yl)methyl)piperazin-1-yl)-N-phenylacetamide] | 2600 | 78.3 | –
CC(=O)Nc1ncc(CN2CCN(CC(=O)Oc3ccccc3)CC2)s1 [Compound A-2, phenyl 2-(4-((2-acetamidothiazol-5-yl)methyl)piperazin-1-yl)acetate] | – | 34.6 | 185 to 194
CC(=O)Nc1ncc(CN2CCN(CC(=O)Nc3ccc(C)cc3)CC2)s1 [Compound A-3, 2-(4-((2-acetamidothiazol-5-yl)methyl)piperazin-1-yl)-N-(p-tolyl)acetamide] | – | 70.7 | 213 to 217
CC(=O)Nc1ncc(CN2CCN(CC(=O)Nc3ccccc3C)CC2)s1 [Compound A-4, 2-(4-((2-acetamidothiazol-5-yl)methyl)piperazin-1-yl)-N-(o-tolyl)acetamide] | – | 47.6 | 194 to 196
CC(=O)Nc1ncc(CN2CCN(CC(=O)Nc3cccc(C)c3)CC2)s1 [Compound A-5, 2-(4-((2-acetamidothiazol-5-yl)methyl)piperazin-1-yl)-N-(m-tolyl)acetamide] | – | 62.4 | 202 to 204
CC(=O)Nc1ncc(CN2CCN(CC(=O)Nc3ccc(C(C)C)cc3)CC2)s1 [Compound A-6, 2-(4-((2-acetamidothiazol-5-yl)methyl)piperazin-1-yl)-N-(4-isopropylphenyl) acetamide] | – | 79.2 | 173 to 176
COc1ccc(NC(=O)CN2CCN(Cc3cnc(NC(C)=O)s3)CC2)cc1 [Compound A-7, 2-(4-((2-acetamidothiazol-5-yl)methyl)piperazin-1-yl)-N-(4-methoxyphenyl)acetamide] | 840 | 84.2 | 217 to 220
COc1ccc(CCNC(=O)CN2CCN(Cc3cnc(NC(C)=O)s3)CC2)cc1 [Compound A-8, 2-(4-((2-acetamidothiazol-5-yl)methyl)piperazin-1-yl)-N-(4-methoxyphenethyl) acetamide] | 630 | 85.4 | 177 to 179
COc1cccc(NC(=O)CN2CCN(Cc3cnc(NC(C)=O)s3)CC2)c1 [Compound A-9, 2-(4-((2-acetamidothiazol-5 yl)methyl)piperazin-1-yl)-N-(3-methoxyphenyl) acetamide.] | – | 59.9 | 210 to 212
COc1ccc(NC(=O)CN2CCN(Cc3cnc(NC(C)=O)s3)CC2)cc1OC [Compound A-10, 2-(4-((2-acetamidothiazol-5-yl)methyl)piperazin-1-yl)-N-(3,4-dimethoxyphenyl)acetamide] | – | 62.4 | 182 to 184
CC(=O)Nc1ncc(CN2CCN(CC(=O)Nc3ccc(F)cc3)CC2)s1 [Compound A-11, 2-(4-((2-acetamidothiazol-5-yl)methyl)piperazin-1-yl)-N-(4-fluorophenyl)acetamide] | 2610 | 85.7 | 212 to 215
CC(=O)Nc1ncc(CN2CCN(CC(=O)Nc3ccc(Cl)cc3)CC2)s1 [Compound A-12] | 1990 | 81.6 | 232 to 236
CC(=O)Nc1ncc(CN2CCN(CC(=O)Nc3ccc(Cl)cc3Br)CC2)s1 [Compound A-13, 2-(4-((2-acetamidothiazol-5-yl)methyl)piperazin-1-yl)-N-(2-bromo-4-chlorophenyl)acetamide] | 1700 | 85.2 | 212 to 213
CC(=O)Nc1ccc(NC(=O)CN2CCN(Cc3cnc(NC(C)=O)s3)CC2)cc1 [Compound A-14, N-(4-acetamidophenyl)-2-(4-((2-acetamidothiazol-5-yl)methyl)piperazin-1-yl)acetamide] | 1250 | 80.0 | 234 to 237
CC(=O)Nc1ncc(CN2CCN(CC(=O)Nc3ccccn3)CC2)s1 [Compound A-15, 2-(4-((2-acetamidothiazol-5-yl)methyl)piperazin-1-yl) N-(pyridin-2-yl)acetamide] | – | 90.9 | –
CC(=O)Nc1ncc(CN2CCN(CC(=O)Nc3cccc(C)n3)CC2)s1 [Compound A-16] | – | 38.6 | 224 to 228

Compound | IC50 [1] [nM] | % of inhibition [1] [%] | melting point [°C]
CC(=O)Nc1ncc(CN2CCN(CC(=O)Nc3ccc(C)cn3)CC2)s1 [Compound A-17, 2-(4-((2-acetamidothiazol-5-yl)methyl)piperazin-1-yl)-N-(5-methylpyridin-2-yl) acetamide] | – | 64.3 | 224 to 230
CC(=O)Nc1ncc(CN2CCN(CC(=O)Nc3cc(C)ccn3)CC2)s1 [Compound A-18, 2-(4-((2-acetamidothiazol-5-yl)methyl)piperazin-1-yl)-N-(4-methylpyridin-2-yl) acetamide] | – | 48.8 | 210 to 211
CC(=O)Nc1ncc(CN2CCN(CC(=O)Nc3cnccn3)CC2)s1 [Compound A-19, 2-(4-((2-acetamidothiazol-5-yl)methyl)piperazin-1-yl)-N-(pyrazin-2-yl)acetamide] | – | 74.7 | 224 to 226
CC(=O)Nc1ncc(CN2CCN(CC(=O)NC3CCCCC3)CC2)s1 [Compound A-20, 2-(4-((2-acetamidothiazol-5-yl)methyl)piperazin-1-yl)-N-cyclohexylacetamide] | 1400 | 89.0 | 198 to 200
CC(=O)Nc1ncc(CN2CCN(CC(=O)Nc3nccs3)CC2)s1 [Compound A-21, 2-(4-((2-acetamidothiazol-5-yl)methyl)piperazin-1-yl)-N-(thiazol-2-yl)acetamide] | – | 59.1 | 237 to 240
CC(=O)Nc1ncc(CN2CCN(CC(=O)Nc3ccc4ncccc4c3)CC2)s1 [Compound A-22, 2-(4-((2-acetamidothiazol-5-yl)methyl)piperazin-1-yl)-N-(quinolin-6-yl)acetamide] | 900 | 97.5 | 248 to 250
CC(=O)Nc1ncc(CN2CCN(CC(=O)Nc3ccc4nccnc4c3)CC2)s1 [Compound A-23, 2-(4-((2-acetamidothiazol-5-yl)methyl)piperazin-1 yl)-N-(quinoxalin-6-yl)acetamide] | – | 70.1 | 234 to 235
CC(=O)Nc1ncc(CN2CCN(CC(=O)Nc3cccc4ccccc34)CC2)s1 [Compound A-24, 2-(4-((2-acetamidothiazol-5-yl)methyl)piperazin-1-yl)-N-(naphthalen-1-yl)acetamide] | – | 71.3 | 257 to 258
CC(=O)Nc1ncc(CN2CCN(CC(=O)Nc3ccc4[nH]ccc4c3)CC2)s1 [Compound A-25, 2-(4-((2-acetamidothiazol-5-yl)methyl)piperazin-1-yl)-N-(1H-indol-5-yl)acetamide] | – | 59.2 | 216 to 219
CC(=O)Nc1ncc(CN2CCN(CC(=O)Nc3nc4ccccc4[nH]3)CC2)s1 [Compound A-26, 2-(4-((2-acetamidothiazol-5-yl)methyl)piperazin-1-yl)-N-(1H-benzo[d]imidazol-2-yl)acetamide] | – | 62.6 | 233 to 236
CC(=O)Nc1ncc(CN2CCN(CC(=O)Nc3nc4ccccc4s3)CC2)s1 [Compound A-27, 2-(4-((2-acetamidothiazol-5-yl)methyl)piperazin-1 yl)-N-(benzo[d]thiazol-2-yl)acetamide] | – | 46.2 | 248 to 249
COc1ccc2nc(NC(=O)CN3CCN(Cc4cnc(NC(C)=O)s4)CC3)sc2c1 [Compound A-28, 2-(4-((2-acetamidothiazol-5-yl)methyl)piperazin-1-yl)-N-(6-methoxybenzo[d]thiazol-2-yl)acetamide] | – | 19.2 | –
CCOc1ccc2nc(NC(=O)CN3CCN(Cc4cnc(NC(C)=O)s4)CC3)sc2c1 [Compound A-29, 2-(4-((2-acetamidothiazol-5 yl)methyl)piperazin-1 yl)-N-(6-ethoxybenzo[d]thiazol-2-yl)acetamide] | – | 44.6 | 244 to 246
CC(=O)Nc1ncc(CN2CCN(CC(=O)Nc3nc4c(Cl)cccc4s3)CC2)s1 [Compound A-30, 2-(4-((2-acetamidothiazol-5-yl)methyl)piperazin-1-yl)-N-(4-chlorobenzo[d]thiazol-2-yl)acetamide] | – | 42.6 | 255 to 257
CC(=O)Nc1ncc(CN2CCN(CC(=O)N(C)c3ccccc3)CC2)s1 [Compound A-31, 2-(4-((2-acetamidothiazol-5-yl)methyl)piperazin-1-yl)-N-methyl-N-phenylacetamide] | – | 50.4 | 208 to 210
CC(=O)Nc1ncc(CN2CCN(CC(=O)Nc3ccccc3)CC2C)s1 (stereo not shown) [Compound A-32, 2-(4-((2-acetamidothiazol-5 yl)methyl)-3-methylpiperazin-1-yl)-N-phenylacetamide] | 240 | 97.0 | 174 to 176
CC(=O)Nc1ncc(CN2CCC(C(=O)NC(C)c3ccc(C)cc3)CC2)s1 (stereo not shown) [Compound B-11, 1-((2-acetamidothiazol-5-yl)methyl)-N-(1-(p-tolyl)ethyl)piperidine-4-carboxamide] | 830 | 93.3 | –
CC(=O)Nc1ncc(CN2CCC(C(=O)NC(C)c3ccc4ccccc4c3)CC2)s1 (stereo not shown) [Compound B-12, 1-((2-acetamidothiazol-5 yl)methyl)-N-(1-(naphthalen-2-yl)ethyl)piperidine-4-carboxamide] | 250 | 96.8 | –
